From patent publication US5856336A, “Quinoline type mevalonolactones” (Nissan Chemical Industries Ltd., priority 1987, dated 1999)
Structures can show the parent of a compound that is named as a salt.

System: cholesterol biosynthesis from acetate (liver microsome and sup fraction)
Experiment: Test A: Inhibition of cholesterol biosynthesis from acetate in vitro
Assay type: biochemical, male Wistar rat
Conditions: for Relative activities by Test A: relative to CS-514 being evaluated to be 1
Description: Test A: Inhibition of cholesterol biosynthesis from acetate in vitro
Enzyme solution was prepared from liver of male Wistar rat billialy cannulated and discharged bile for over 24 hours. Liver was cut out at mid-dark and microsome and supernatant fraction which was precipitable with 40-80% of saturation of ammonium sulfate (sup fraction) were prepared from liver homogenate according to the modified method of Knauss et. al.; Kuroda, M., et. al., Biochim. Biophys. Acta, 489, 119 (1977). For assay of cholesterol biosynthesis, microsome (0.1 mg protein) and sup fraction (1.0 mg protein) were incubated for 2 hours at 37° C. in 200 μl of the reaction mixture containing ATP; 1 mM, Glutathione; 6 mM, Glucose-1-phosphate; 10 mM, NAD; 0.25 mM, NADP; 0.25 mM, CoA; 0.04 mM and 0.2 mM [2-^14 C]sodium acetate (0.2 μCi) with 4 μl of test compound solution dissolved in water or dimethyl sulfoxide. To stop reaction and saponify, 1 ml of 15% EtOH-KOH was added to the reactions and heated at 75° C. for 1 hour. […] Inhibitory activity of compounds was indicated with IC50.

Compound | IC50 (Test A, rat liver microsome + sup fraction, [2-14C]sodium acetate, 2 hours at 37° C., read-out: I50 (inhibitory activities by Test A)) [nM] | Relative activities by Test A
CC(C)c1nc2ccccc2c(-c2ccc(F)cc2)c1/C=C/C(O)CC(O)CC(=O)O (stereo not drawn) [I-51, Sodium salt of (E)-3,5-dihydroxy-7-[4'-(4"-fluorophenyl)-2'-(1"-methylethyl)-quinolin-3 '-yl]-hept-6-enoic acid] | 10 | –
CCOC(=O)CC(O)CC(O)/C=C/c1c(CC)nc2ccccc2c1-c1ccc(F)cc1 (stereo not drawn) [I-117] | – | 0.37
CC(C)c1nc2c(Cl)cc(Cl)cc2c(-c2ccc(F)cc2)c1/C=C/C(O)CC(O)CC(=O)O (stereo not drawn) [I-522] | – | 0.76
